Experimental data published in patent publication US20110098296A1, “Thiazole And Oxazole Kinase Inhibitors” (priority 2007, published 2011).
Structures can show the parent of a compound that is named as a salt.

Columns and labels:
[1] = target: T1, EGFR (Homo sapiens, UniProt P00533); assay: EGFR substrate phosphorylation assay (HTRF); assay type: biochemical; conditions: Method (A): Enzyme Mix incubated with compound at 20° C. for 1 hr, reaction started by adding Substrate Mix
T1 construct: made in house; host or cells: baculovirus expression system
How it was run: (§1)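 Baculovirus-expressed kinase (0.8 nM EGFR or 10 nM ErbB2 in enzyme mix) with Peptide C 0.8 μM and ATP 20 μM (substrate-mix levels), MOPS pH 7.5, MnCl2; 90 min, 20 °C, HTRF anti-phosphotyrosine. Method A adds 1 h enzyme–compound preincubation; B none. pIC50, final compound 0.00027–47.6 μM.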

[2] = target: T2, ErbB2 (Homo sapiens, UniProt P04626); assay: ErbB-2 substrate phosphorylation assay (HTRF); assay type: biochemical; conditions: Method (A): Enzyme Mix incubated with compound at 20° C. for 1 hr, reaction started by adding Substrate Mix
T2 construct: made in house; host or cells: baculovirus expression system
How it was run: as §1

[3] = system: HN5 tumor cells; assay: Method C: Cell Growth Inhibition Assay (CellTiter-Glo), HN5; assay type: cell-based; conditions: Homo sapiens, 72 h, 3 days, 4-parameter fit
Procedure: (§2) Human breast tumor cells (BT474) were cultured in RPMI (Mediatech 50-011-PB), containing 10% FBS (JRH Biosciences 12176) and 1% penicillin-streptomycin (Invitrogen 15140). Human head and neck tumor cells (HN5) were cultured in high glucose DMEM (Mediatech 50-013-PB) containing 10% FBS and 1% penicillin-streptomycin. Human colon tumor cells (Colo205) were cultured in RPMI (Mediatech 50-020-PB) containing 10% FBS and 1% penicillin-streptomycin. Human melanoma cancer cells (SK-MEL-28) were cultured in EMEM with nonessential amino acids (Mediatech 50-011-PB) containing 10% FBS, 1% sodium pyruvate (JT Baker 3354-04), and 1% penicillin-streptomycin. Human melanoma cancer cells (A375P F11s) were cultured in RPMI (Mediatech 50-020-PB) containing 10% FBS, 1% sodium pyruvate, and 1% penicillin-streptomycin. Human colon cancer cells (HT-29) were cultured in high glucose DMEM (Mediatech 50-013-PB) containing 10% FBS and 1% penicillin-streptomycin. Human melanoma cancer cells (SK-MEL-3) were cultured in McCoy's 5A (50-025-PB) containing 15% FBS, and 1% penicillin-streptomycin. All cell lines were maintained at 37° C. in a humidified 5% CO2, 95% air incubator. Cells were harvested using trypsin/EDTA (Invitrogen 25200), counted using an haemocytometer, and plated. For 96-well assays (using white full-area NUNC plates cat. #136102), cells were plated in 105 μL at the following densities (cells/well): HN5, 500; Colo205, 500; SK-MEL-28, 500; A375P-F11s, 500; HT-29, 500; SK-MEL-3, 500; and BT474, 3000. For 384-well assays (white full-area NUNC plates, cat. #781080), cells were plated in 48 μL at the following densities (cells/well): HN5, 500; Colo205, 500; SK-MEL-28, 500; A375P-F11s, 500; HT29, 500; SK-MEL-3, 500; and BT474, 2000.
(§3) The next day, compounds were diluted as follow: For 96-well assays, 13.5 μL of compound in DMSO were diluted using nine (9) serial 1:3 dilutions of 4.5 μL in 9 μL of DMSO. Medium (270 μl/well of RPMI with 10% FBS and 1% penicillin-streptomycin) was added to the plates. Aliquots (7 μl) were added to cells in the final assay giving a final DMSO concentration of 0.2%. For 384-well assays, 15 μL of compound in DMSO were diluted using nine (9) serial 1:3 dilutions of 5 μL in 10 μL of DMSO, followed by a further dilution of 5 μL of compound with 95 μL of medium, of which 2 μL were added to cells in the final assay giving a final DMSO concentration of 0.2%. Cells were incubated at 37° C., 5% CO2 for 3 days.
(§4) Total ATP was measured (as a surrogate estimate of cell number) using CellTiter-Glo® reagent (Promega G7571). Briefly, plates were removed from the incubator and allowed to equilibrate to room temperature for 30 minutes. CellTiter-Glo® (25 μL or 55 μL for 384-well or 96-well assays, respectively) reagent was added to each well and plates were shaken on an orbital plate shaker for 2 mins. Plates were incubated without shaking for a further 30 mins and read on an LJL Analyst GT reader in luminometer mode with an integration time of 0.5 seconds per well. Percent inhibition of cell growth was calculated relative to DMSO vehicle-treated control wells. Concentration of compound required to give 50% inhibition of vehicle-treated control cell growth (IC50) was interpolated using a 4-parameter fit for determining IC50 using the following equation: Y=A+((B−A)/(1+((C/X)̂D))) where X=IC50.

[4] = system: BT474 tumor cells; assay: Method C: Cell Growth Inhibition Assay (CellTiter-Glo), BT474; assay type: cell-based; conditions: Homo sapiens, BT-474, 72 h, 3 days, 4-parameter fit
[5] = system: Colo205 tumor cells; assay: Method C: Cell Growth Inhibition Assay (CellTiter-Glo), Colo205; assay type: cell-based; conditions: Homo sapiens, COLO 205, 72 h, 3 days, 4-parameter fit
How it was run: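 500 cells/well; next-day compound, 1:3 serial dilutions, 0.2% DMSO final; 3 d, 37° C, 5% CO2. Readout: CellTiter-Glo luminescence (total ATP as cell-number surrogate). IC50 from 4-parameter fit of % growth inhibition vs vehicle.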

[6] = system: SK-MEL-28 tumor cells; assay: Method C: Cell Growth Inhibition Assay (CellTiter-Glo), SK-MEL-28; assay type: cell-based; conditions: Homo sapiens, SK-MEL-28, 72 h, 3 days, 4-parameter fit
How it was run: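 Cells plated at 500 cells/well, dosed next day with 10-point 1:3 dilution series (0.2% final DMSO) and grown 3 days at 37 °C, 5% CO2. CellTiter-Glo luminescence (total ATP) served as cell-number surrogate; inhibition relative to DMSO controls, IC50 interpolated by 4-parameter fit.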

[7] = system: A375P F11s tumor cells; assay: Method C: Cell Growth Inhibition Assay (CellTiter-Glo), A375P F11s; assay type: cell-based; conditions: Homo sapiens, 72 h, 3 days, 4-parameter fit
Procedure: as §2, §3, §4

[8] = system: HT-29 tumor cells; assay: Method C: Cell Growth Inhibition Assay (CellTiter-Glo), HT-29; assay type: cell-based; conditions: Homo sapiens, HT-29, 72 h, 3 days, 4-parameter fit
Procedure: as §2, §3, §4

[9] = system: SK-MEL-3 tumor cells; assay: Method C: Cell Growth Inhibition Assay (CellTiter-Glo), SK-MEL-3; assay type: cell-based; conditions: Homo sapiens, SK-MEL3, 72 h, 3 days, 4-parameter fit
Procedure: as §2, §3, §4

T2 sequence (P04626 23-1255): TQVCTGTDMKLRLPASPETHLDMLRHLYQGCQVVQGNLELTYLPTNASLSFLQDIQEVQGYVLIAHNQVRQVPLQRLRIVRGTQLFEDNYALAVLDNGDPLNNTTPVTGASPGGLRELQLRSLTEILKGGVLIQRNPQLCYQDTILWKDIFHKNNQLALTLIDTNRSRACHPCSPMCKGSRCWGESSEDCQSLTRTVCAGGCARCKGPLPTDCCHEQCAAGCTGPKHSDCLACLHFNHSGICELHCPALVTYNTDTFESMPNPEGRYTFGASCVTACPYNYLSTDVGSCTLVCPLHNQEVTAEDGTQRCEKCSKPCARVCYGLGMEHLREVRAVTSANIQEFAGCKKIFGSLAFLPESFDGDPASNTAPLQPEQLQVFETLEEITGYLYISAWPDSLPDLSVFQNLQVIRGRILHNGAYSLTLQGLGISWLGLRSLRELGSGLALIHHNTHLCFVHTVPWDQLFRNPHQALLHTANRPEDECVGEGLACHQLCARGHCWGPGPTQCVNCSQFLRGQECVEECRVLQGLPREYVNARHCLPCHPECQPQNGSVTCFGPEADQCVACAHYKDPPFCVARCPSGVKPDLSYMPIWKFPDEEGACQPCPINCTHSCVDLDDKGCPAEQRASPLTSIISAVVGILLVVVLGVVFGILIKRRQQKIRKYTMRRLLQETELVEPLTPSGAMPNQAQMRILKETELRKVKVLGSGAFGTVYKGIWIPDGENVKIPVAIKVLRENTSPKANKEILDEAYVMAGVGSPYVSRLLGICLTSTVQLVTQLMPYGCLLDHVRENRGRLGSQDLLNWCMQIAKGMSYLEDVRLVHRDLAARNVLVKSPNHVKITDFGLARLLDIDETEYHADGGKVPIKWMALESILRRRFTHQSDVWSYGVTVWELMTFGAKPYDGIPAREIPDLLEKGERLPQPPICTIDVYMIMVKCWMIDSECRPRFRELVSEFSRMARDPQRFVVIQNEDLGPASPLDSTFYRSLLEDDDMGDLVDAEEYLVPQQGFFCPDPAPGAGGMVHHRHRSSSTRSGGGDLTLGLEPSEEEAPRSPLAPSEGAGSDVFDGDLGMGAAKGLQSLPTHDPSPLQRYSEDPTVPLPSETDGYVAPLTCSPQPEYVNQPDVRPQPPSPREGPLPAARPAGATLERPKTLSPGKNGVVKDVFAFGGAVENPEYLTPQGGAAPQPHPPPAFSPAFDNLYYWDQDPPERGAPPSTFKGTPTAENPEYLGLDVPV
T1 sequence (P00533 25-1210): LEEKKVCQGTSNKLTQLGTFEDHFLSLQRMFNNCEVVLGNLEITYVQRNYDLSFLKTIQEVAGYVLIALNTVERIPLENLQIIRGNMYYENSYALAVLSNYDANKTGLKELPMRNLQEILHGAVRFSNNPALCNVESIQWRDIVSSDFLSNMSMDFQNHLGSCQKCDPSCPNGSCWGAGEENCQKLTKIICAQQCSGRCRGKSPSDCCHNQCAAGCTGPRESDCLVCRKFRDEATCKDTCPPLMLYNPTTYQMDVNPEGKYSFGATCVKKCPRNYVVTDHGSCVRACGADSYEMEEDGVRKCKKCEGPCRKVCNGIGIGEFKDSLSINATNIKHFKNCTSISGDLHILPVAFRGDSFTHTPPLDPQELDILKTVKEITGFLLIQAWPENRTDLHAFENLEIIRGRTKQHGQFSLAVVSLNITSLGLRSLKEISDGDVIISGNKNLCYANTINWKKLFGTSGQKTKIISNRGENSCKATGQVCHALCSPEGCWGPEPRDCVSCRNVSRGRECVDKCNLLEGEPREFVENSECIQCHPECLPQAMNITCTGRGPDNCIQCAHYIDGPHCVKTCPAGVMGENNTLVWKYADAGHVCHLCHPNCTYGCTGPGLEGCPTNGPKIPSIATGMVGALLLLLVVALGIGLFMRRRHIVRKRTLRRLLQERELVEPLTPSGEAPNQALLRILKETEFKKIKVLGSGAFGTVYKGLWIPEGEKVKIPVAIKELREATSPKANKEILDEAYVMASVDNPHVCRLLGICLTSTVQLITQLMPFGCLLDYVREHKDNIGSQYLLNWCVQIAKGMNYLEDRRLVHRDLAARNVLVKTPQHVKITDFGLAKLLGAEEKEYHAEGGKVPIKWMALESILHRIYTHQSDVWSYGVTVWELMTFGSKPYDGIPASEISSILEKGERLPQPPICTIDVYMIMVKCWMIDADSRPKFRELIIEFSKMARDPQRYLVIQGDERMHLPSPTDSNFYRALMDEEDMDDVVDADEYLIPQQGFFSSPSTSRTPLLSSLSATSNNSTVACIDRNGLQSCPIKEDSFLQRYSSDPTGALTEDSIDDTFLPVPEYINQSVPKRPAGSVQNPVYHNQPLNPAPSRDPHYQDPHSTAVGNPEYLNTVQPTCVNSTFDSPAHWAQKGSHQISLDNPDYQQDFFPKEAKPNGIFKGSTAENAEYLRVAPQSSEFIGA

| SMILES | IC50 [1] [nM] | IC50 [2] [nM] | IC50 [3] [nM] | IC50 [4] [nM] | IC50 [5] [nM] | IC50 [6] [nM] | IC50 [7] [nM] | IC50 [8] [nM] | IC50 [9] [nM] |
| --- | --- | --- | --- | --- | --- | --- | --- | --- | --- |
| Nc1nc(-c2cccc(NC(=O)c3c(F)cccc3F)c2)c(-c2ccnc(Nc3cccc(CN4CCCC4)c3)n2)s1 [Example 13, N-{3-[2-Amino-5-(2-{[3-(1-pyrrolidinylmethyl)phenyl]amino}-4-pyrimidinyl)-1,3-thiazol-4-yl]phenyl}-2,6-difluorobenzamide] | < 100 | < 100 | < 100 | < 100 | 100 to 1000 | > 1000 | 100 to 1000 | 100 to 1000 | 100 to 1000 |
| CCN(CC)CCOc1cccc(Nc2nccc(-c3sc(N)nc3-c3cccc(NC(=O)c4c(F)cccc4F)c3)n2)c1 [Example 17, N-(3-{2-Amino-5-[2-({3-[2-(diethylamino)ethoxy]phenyl}amino)pyrimidiN-4-yl]-1,3-thiazol-4-yl}phenyl)-2,6-difluorobenzamide] | < 100 | < 100 | < 100 | < 100 | 100 to 1000 | > 1000 | 100 to 1000 | 100 to 1000 | > 1000 |
| CN(C)CCOc1cccc(Nc2nccc(-c3sc(N)nc3-c3cccc(NC(=O)c4c(F)cccc4F)c3)n2)c1 [Example 22, N-[3-(2-Amino-5-{2-[(3-{[2-(dimethylamino)ethyl]oxy}phenyl)amino]-4-pyrimidinyl}-1,3-thiazol-4-yl)phenyl]-2,6-difluorobenzamide] | < 100 | < 100 | < 100 | < 100 | 100 to 1000 | 100 to 1000 | 100 to 1000 | 100 to 1000 | 100 to 1000 |
| CN(C)CCOc1cccc(Nc2nccc(-c3sc(N4CCCCC4)nc3-c3cccc(NC(=O)c4c(F)cccc4F)c3)n2)c1 [Example 74, N-{3-[5-{2-[(3-{[2-(Dimethylamino)ethyl]oxy}phenyl)amino]-4-pyrimidinyl}-2-(1-piperidinyl)-1,3-thiazol-4-yl]phenyl}-2,6-difluorobenzamide] | < 100 | < 100 |  | 100 to 1000 | 100 to 1000 | > 1000 | 100 to 1000 | 100 to 1000 | > 1000 |
| CCc1nc(-c2cccc(NC(=O)c3c(F)cccc3F)c2)c(-c2ccnc(Nc3ccc(N4CCOCC4)nc3)n2)s1 [Example 118, N-{3-[2-Ethyl-5-(2-{[6-(4-morpholinyl)-3-pyridinyl]amino}-4-pyrimidinyl)-1,3-thiazol-4-yl]phenyl}-2,6-difluorobenzamide trifluoroacetate] |  |  | 100 to 1000 | 100 to 1000 | > 1000 | > 1000 | > 1000 | > 1000 | > 1000 |
| CN(C)CCOc1ccc(Nc2nccc(-c3sc(-c4ccc(O)cc4)nc3-c3cccc(NC(=O)c4cc(F)ccc4F)c3)n2)cc1Cl [Example 140, N-{3-[5-{2-[(3-Chloro-4-{[2-(dimethylamino)ethyl]oxy}phenyl)amino]-4-pyrimidinyl}-2-(4-hydroxyphenyl)-1,3-thiazol-4-yl]phenyl}-2,5-difluorobenzamide] | < 100 | < 100 | 100 to 1000 | 100 to 1000 | 100 to 1000 | 100 to 1000 |  |  |  |
